These results are taken from PMC10037499, “High-Throughput Screen Reveals the Structure–Activity Relationship of the Antimicrobial Lasso Peptide Ubonodin” (ACS Central Science, 2023).

Where a SMILES comes first, the peptide text is derived from it.

The subject of test [1] is RNA polymerase (RNAP) in E. coli MC1061. The experiment in a line: High-throughput growth-based screen with NGS (enrichment value) for RNA polymerase inhibition. It counts as cell-based. Details: key to Experimental observation (enrichment observed in the screen): Dropout: Many variants inhibit RNAP so strongly that they cannot be detected by NGS after IPTG induction (referred to as dropout variants). To be noted: Table S4; variants whose MICs were tested. The protocol:
The single mutant library was analyzed by NGS at multiple stages of sample preparation (Figure 2A) to track its evolution throughout the screen. Specifically, the frequency of each possible aa variant was computed at each stage by summing up counts for each distinct translated sequence and dividing by the total number of counts for all variants (eq S1, SI Methods). Since cells expressing an RNAP-inhibiting ubonodin variant will have growth defects relative to cells with a nontoxic variant, RNAP-inhibiting ubonodin variants are expected to decrease in frequency throughout the screen.
First, the naïve library (digested PCR products) was sequenced. These digested PCR products were cloned into the pUboABC backbone and transformed into a recA^– cloning strain. This plasmid library was sequenced again to capture any changes upon transformation of the library into E. coli. The change between the naïve library and the cloning transformation library was minimal (Figure S6A). This plasmid library was transformed into the screening strain MC1061, and the plasmid from resulting colonies was also sequenced. The library in MC1061 was grown up en masse in liquid culture to mid log phase, and a portion of the culture was plated. These colonies were scraped, then the plasmid was isolated and sequenced. Finally, the liquid culture was induced with IPTG, after which a portion of the culture was plated and the plasmid was isolated and sequenced. It is key to note that all samples from liquid cultures were plated prior to sequencing to ensure that only viable cells were sequenced. […] The rationale for sequencing at these five different stages was the possibility that leaky expression of uboA would affect the frequency of active mutants prior to IPTG induction. Indeed, we observed that the frequency of some uboA mutants dropped as soon as they were transformed into the screening strain MC1061 while the frequency of other mutants climbed (Figure 2B).
The behavior of the point variants (i.e., variants with a single aa substitution) was examined by calculating their enrichment values, the base-2 logarithm of the ratio of the variant’s frequency at a specific step of the screen to the variant’s frequency in the cloning transformation library (eq S3, Figure S6). The most relevant enrichment value for ubonodin activity is the comparison between the post-IPTG library and the cloning transformation library (Figure 2A). […] Many variants inhibit RNAP so strongly that they cannot be detected by NGS after IPTG induction (referred to as dropout variants). […] Variants with a stop codon mutation and variants containing an aa substitution at Tyr9 or Tyr27 (positions conserved in MccJ25 and shown to be crucial for RNAP inhibition, see Figure S7)[26] have positive enrichment values (1.2–1.7), serving as quality control for the screen (Figure 3A). Strikingly, 63% of point variants decreased in frequency, indicating a high tolerance to aa substitution. […] The positions with active variants are Asn11 through Ser24 in the loop and Asp3, Ser5, and Ala7 in the ring.
The single mutant and double mutant libraries were transformed into E. coli MC1061. Colonies were resuspended in media and subcultured into a larger culture. Aliquots of the cultures were sampled prior to and after induction with 10 μM IPTG and 100 μM IPTG and plated. After 16 h of incubation, the colonies were resuspended in media and plasmids were miniprepped.
Samples were PCR amplified with barcoded primers and combined such that double mutant library samples were over-represented compared to single mutant library samples to provide sufficient coverage of the larger double mutant library. Samples were sequenced using an Illumina MiSeq Micro 300nt and an Illumina NovaSeq 6000 Sequencing System. Downstream analysis of the data was conducted with Python, MATLAB, and R.
V to reduce genomic DNA contamination. One fragment was amplified with Xho I For Lib and a […]

The next test relates to B. cenocepacia AU0756. The protocol:
We proceeded to test the antimicrobial activity of the selected variants against two clinical isolates of the Bcc, B. cenocepacia AU0756 and B. cenocepacia AU24362, in broth microdilution assays. […] We revisited these measurements using broth microdilution assays following the Clinical & Laboratory Standards Institute (CLSI) standard.
Broth microdilution assays of the ubonodin variants were conducted using B. cenocepacia AU0756 and B. cenocepacia AU24362 with guidelines provided by the Clinical & Laboratory Standards Institute (CLSI).

A further test relates to E. coli MC1061. As to the kind of experiment: Spot dilution assay of E. coli producing the ubonodin variant from pUboABC. It counts as cell-based. To be noted: variant in pUboABC backbone in E. coli MC1061, induction with 100 μM IPTG, ten-fold serial dilutions, biological duplicates. The protocol:
Cultures of E. coli MC1061 transformed with the appropriate plasmids were grown. Aliquots of the cultures were sampled prior to and after induction with 100 μM IPTG, and 10-fold serial dilutions were plated. […]
All cloning was conducted by PCR amplification (using Q5 polymerase), restriction digestion, ligation, (using T4 DNA ligase), and transformation into chemically competent E. coli XL1-Blue. All cloning with a pUboABC backbone was done by plating transformation mixt ures onto Lysogeny Broth (LB) plates supplemented with 100 μg/mL ampicillin and 0.2% w/v glucose, and colonies were inoculated into LB media supplemented with 100 μ g/mL ampicillin and 0.2% w/v glucose to suppress any leaky expression. Cloning for all other plasmid constructs was done by plating transformation mixtures onto Lysogeny Broth (LB) plates supplemented with 100 μ g/ m L ampicillin, and colonies were inoculated into LB media supplemented with 100 μ g/ m L ampicillin.
Plasmids were extracted using Qiagen QIAprep Spin Miniprep Kit and sequence verified using Sanger sequencing. All primer sequences are listed in Table S7, and all plasmid constructs are […]
pUboABC was cloned by amplifying pWC99 with pQE-80 NheI For and pAT8 Nco I Rev.
The amplicon was ligated into pWC99 digested with Nhe I and Nco I. pUboBC was cloned by digesting pUboABC with Nh e I and Nco I and ligating that fragment into pQE-80 digested with Nhe I and Nco I. pUboABC S5H I16P and pUboABCD S5H I16P were cloned with overlap PCR using pWC99 as the template. One fragment was amplified with pQE-80 EcoRI For and S5H I16P Rev v2 and the second fragment was amplified with S5H I16P For v2 and pQE-80 HindII I Rev. […]
All remaining plasmid constructs were cloned with overlap PCR. One fragment was amplified with Xho I For Lib and a mutagenic reverse primer and the second fragment was amplified with NheI Rev Lib and a mutagenic forward primer. The templates and mutagenic […]
The fragments were joined with a second round of PCR and amplified with XhoI For Lib and NheI Rev Lib. Amplicons were ligated into the appropriate plasmid backbone digested with Xho I and Nhe I-HF. The plasmid backbones […]
The appropriate plasmid was transformed into electrocompetent E. coli MC1061, plated onto LB plates supplemented with 100 μ g/ m L ampicillin and 0.2% w/v glucose, and incubated at 30 °C for 16 hours. Colonies were inoculated into LB media supplemented with 100 μ g/ m L ampicillin and 0.2% w/v glucose and grown at 37 °C for 16 hours. These cultures were sub-cultured to an OD600 of 0.02 in 50 mL of LB media supplemented with 100 μg/mL ampicillin in a 250 mL flask. Once the OD600 reached 0.3, a 1 mL aliquot was sampled immediately prior to inducing the cultures with 100 μM isopropyl β-D-1-thiogalactopyranoside (IPTG). The aliquot was washed with Phosphate-Buffered Saline (PBS) two times and ten-fold serial dilutions were spotted onto LB plates supplemented with 100 μ g/ m L ampicillin and 0.2% w/v glucose. For each following timepoint, a 1 mL sample of each culture was withdrawn, washed with PBS two times, and ten- […]
fold serial dilutions were spotted onto LB plates supplemented with 100 μ g/m L ampicillin and 0.2% w/v glucose. Plates were incubated for 16 hours at 37 °C before imaging. […]
250 mL flask. Ten-fold serial dilutions of the culture were plated onto LB plates supplemented with 100 μ g/ m L ampicillin and 0.2% w/v glucose. The cultures were then grown at 37 °C, and once the OD600 reached 0.3, a 1 mL sample of the culture was withdrawn immediately before the cultures were induced with 10 μM or 100 μM IPTG and returned to grow longer. […]
All plates were incubated at 37 °C for 16 hours, after which the number of colonies was counted. Three biological replicates of this assay were done.
Co-Culture of E. coli MC1061 pUboABC and E. coli MC1061 pUboBC pUboABC (0.9 ng) and pUboBC (0.1 ng) were transformed into electrocompetent E. coli MC1061 with a one- hour outgrowth at 37 °C in LB media supplemented with 0.2% w/v glucose. […]

Regarding `CC[C@H](C)[C@H](NC(=O)[C@H](Cc1c[nH]cn1)NC(=O)[C@H](CCSC)NC(=O)[C@@H]1CCCN1C(=O)[C@@H](NC(=O)[C@H](CC(N)=O)NC(=O)[C@H](Cc1ccccc1)NC(=O)[C@H](Cc1ccc(O)cc1)NC(=O)[C@@H]1CCC(=O)NCC(=O)NCC(=O)N[C@@H](CC(=O)O)C(=O)NCC(=O)N[C@@H](CO)C(=O)N[C@@H]([C@@H](C)CC)C(=O)N[C@@H](C)C(=O)N1)C(C)C)C(=O)NCC(=O)N[C@@H](CC(=O)O)C(=O)N[C@@H](Cc1c[nH]c2ccccc12)C(=O)N[C@@H](CCC(N)=O)C(=O)N[C@H](C(=O)N[C@@H](CCSC)C(=O)N[C@@H](CC(=O)O)C(=O)N[C@@H](CO)C(=O)NCC(=O)N[C@@H](Cc1ccc(O)cc1)C(=O)N[C@@H](Cc1ccc(O)cc1)C(=O)NCC(=O)O)[C@@H](C)CC` [R12V H17G] (HELM PEPTIDE1{G.G.D.G.S.I.A.E.Y.F.N.V.P.M.H.I.G.D.W.Q.I.M.D.S.G.Y.Y.G}$PEPTIDE1,PEPTIDE1,1:R1-8:R3$$$V2.0), in test [1], the “Experimental observation (enrichment observed in the screen)” value is on record as “Dropout”. Moreover, the “B. cenocepacia AU0756 MIC” value in the test on B. cenocepacia AU0756 was 0.25 to 0.5 µM. Also, the “Inhibits Growth” value in the test with E. coli MC1061 is “Yes”.
The like results for `CC[C@H](C)[C@@H]1NC(=O)[C@H](Cc2c[nH]cn2)NC(=O)CNC(=O)[C@H](CC(=O)O)NC(=O)CNC(=O)CNC(=O)CC[C@@H](C(=O)N[C@@H](Cc2ccc(O)cc2)C(=O)N[C@@H](Cc2ccccc2)C(=O)N[C@@H](CC(N)=O)C(=O)N[C@@H](CCCNC(=N)N)C(=O)N2CCC[C@H]2C(=O)N[C@@H](CCSC)C(=O)N[C@@H](Cc2c[nH]cn2)C(=O)N2CCC[C@H]2C(=O)N[C@@H](Cc2c[nH]cn2)C(=O)N[C@@H](CC(=O)O)C(=O)N[C@@H](Cc2c[nH]c3ccccc23)C(=O)N[C@@H](CCC(N)=O)C(=O)N[C@H](C(=O)N[C@@H](CCSC)C(=O)N[C@@H](CC(=O)O)C(=O)N[C@@H](CO)C(=O)NCC(=O)N[C@@H](Cc2ccc(O)cc2)C(=O)N[C@@H](Cc2ccc(O)cc2)C(=O)NCC(=O)O)[C@@H](C)CC)NC(=O)[C@H](C)NC1=O` [S5H I16P] (HELM PEPTIDE1{G.G.D.G.H.I.A.E.Y.F.N.R.P.M.H.P.H.D.W.Q.I.M.D.S.G.Y.Y.G}$PEPTIDE1,PEPTIDE1,1:R1-8:R3$$$V2.0) were, in that order, “Dropout”, 8 µM and “Yes”.
For the compound `CC[C@H](C)[C@@H]1NC(=O)[C@H](CO)NC(=O)CNC(=O)[C@H](CC(=O)O)NC(=O)CNC(=O)CNC(=O)CC[C@@H](C(=O)N[C@@H](Cc2ccc(O)cc2)C(=O)N[C@@H](Cc2ccccc2)C(=O)N[C@@H](CC(N)=O)C(=O)N[C@@H](CCCNC(=N)N)C(=O)N2CCC[C@H]2C(=O)N[C@@H](CCSC)C(=O)N[C@@H](Cc2c[nH]cn2)C(=O)N[C@@H](CCC(=O)O)C(=O)N[C@@H](Cc2c[nH]cn2)C(=O)N[C@@H](CC(=O)O)C(=O)N[C@@H](Cc2c[nH]c3ccccc23)C(=O)N[C@@H](CCC(N)=O)C(=O)N[C@H](C(=O)N[C@@H](CCSC)C(=O)N[C@@H](CC(=O)O)C(=O)N[C@@H](CO)C(=O)NCC(=O)N[C@@H](Cc2ccc(O)cc2)C(=O)N[C@@H](Cc2ccc(O)cc2)C(=O)NCC(=O)O)[C@@H](C)CC)NC(=O)[C@H](C)NC1=O` [I16E] (HELM PEPTIDE1{G.G.D.G.S.I.A.E.Y.F.N.R.P.M.H.E.H.D.W.Q.I.M.D.S.G.Y.Y.G}$PEPTIDE1,PEPTIDE1,1:R1-8:R3$$$V2.0), the “Experimental observation (enrichment observed in the screen)” value in test [1] is given as -7.5. Further, the “B. cenocepacia AU0756 MIC” value in the test on B. cenocepacia AU0756 was 0.5 to 1 µM. The “Inhibits Growth” value with E. coli MC1061 was “Yes”.
